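Where inhibition never reached the appropriate level, the endpoint shown equals the highest concentration tested. Otherwise, values were interpolated linearly from a five-concentration, 48-hour dose response in 96-well plates. GI50 is the concentration that inhibits growth by half.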 Active and inactive are the calls of the source. Cut-off read from the data, not from the text of the source: active = GI50 up to about 1.1 µM and inactive = higher.
Legend:
Experiment in all cases: NCI-60 cell line screen, 48 h
RXF 393 = tested on: RXF 393
T47D = tested on: T47D
SF-295 = tested on: SF-295
UACC-62 = tested on: UACC-62
UO-31 = tested on: UO-31
A549 = tested on: A549
U-251 = tested on: U-251
KM12 = tested on: KM12
MDA-MB-435 = tested on: MDA-MB-435
SK-MEL-5 = tested on: SK-MEL-5
K562 = tested on: K562
SNB-19 = tested on: SNB-19
HCT-15 = tested on: HCT-15
M14 = tested on: M14
OVCAR-8 = tested on: OVCAR-8
SR = tested on: SR
SW-620 = tested on: SW-620
Malme-3M = tested on: Malme-3M
OVCAR-4 = tested on: OVCAR-4
SNB-75 = tested on: SNB-75

SMILES	GI50 (RXF 393)	GI50 (T47D)	GI50 (SF-295)	GI50 (UACC-62)	GI50 (UO-31)	GI50 (A549)	GI50 (U-251)	GI50 (KM12)	GI50 (MDA-MB-435)	GI50 (SK-MEL-5)	GI50 (K562)	GI50 (SNB-19)	GI50 (HCT-15)	GI50 (M14)	GI50 (OVCAR-8)	GI50 (SR)	GI50 (SW-620)	GI50 (Malme-3M)	GI50 (OVCAR-4)	GI50 (SNB-75)
CC(=O)Nc1ccc2nc(-c3cccc(F)c3)cc(O)c2c1	> 31.6 µM (inactive)	> 100 µM (inactive)	18.8 µM (inactive)	3.01 µM (inactive)	24.1 µM (inactive)	59.4 µM (inactive)	2.67 µM (inactive)	5.08 µM (inactive)	1.6 µM (inactive)	5.36 µM (inactive)	2.13 µM (inactive)	4.93 µM (inactive)	17.7 µM	4.95 µM (inactive)	13.4 µM (inactive)	2.32 µM (inactive)	13.3 µM (inactive)	4 µM (inactive)	–	–
CC1(C)CC(=O)C(C(c2cccc(O)c2O)C2C(=O)CC(C)(C)CC2=O)C(=O)C1	> 100 µM (inactive)	91.2 µM (inactive)	> 100 µM (inactive)	> 100 µM (inactive)	–	> 100 µM (inactive)	> 100 µM (inactive)	> 100 µM (inactive)	91 µM (inactive)	> 100 µM (inactive)	92.9 µM (inactive)	> 100 µM (inactive)	57.1 µM	> 100 µM (inactive)	81.7 µM (inactive)	36 µM (inactive)	> 100 µM (inactive)	> 100 µM (inactive)	> 100 µM (inactive)	> 100 µM (inactive)
COC1CCC(O)C(/C=C/[N+](=O)[O-])C1 (stereo not given)	1.42 µM (inactive)	11.3 µM (inactive)	10.6 µM (inactive)	6.24 µM (inactive)	1.81 µM (inactive)	10.6 µM (inactive)	2.19 µM (inactive)	4.14 µM (inactive)	1.65 µM (inactive)	4.06 µM (inactive)	3.03 µM (inactive)	11.5 µM (inactive)	1.82 µM	2.68 µM (inactive)	1.95 µM (inactive)	1.59 µM (inactive)	3.33 µM (inactive)	–	14.8 µM (inactive)	9.68 µM (inactive)
COCC1OC(OC2OCC3OC4(OCC(O)(C(C)OC)C5OCOC54)OC3C2OC)C(OC)C(O)C1OC1OC(C)C(OC)C(OC2OC(C)C3OC4(CC(O)C(OC5CC(OC6CC(C)([N+](=O)[O-])C(OC)C(C)O6)C(OC(=O)c6c(C)c(Cl)c(O)c(Cl)c6OC)C(C)O5)C(C)O4)OC3(C)C2O)C1O (stereo not given)	> 100 µM (inactive)	> 100 µM (inactive)	> 100 µM (inactive)	> 100 µM (inactive)	> 100 µM (inactive)	> 100 µM (inactive)	> 100 µM (inactive)	> 100 µM (inactive)	> 100 µM (inactive)	> 100 µM (inactive)	> 100 µM (inactive)	> 100 µM (inactive)	> 100 µM	> 100 µM (inactive)	> 100 µM (inactive)	> 100 µM (inactive)	> 100 µM (inactive)	–	> 100 µM (inactive)	> 100 µM (inactive)
C[C@H](CCC(=O)NN)[C@H]1CC[C@H]2[C@@H]3CC[C@@H]4C[C@H](O)CC[C@]4(C)[C@H]3CC[C@]12C	21.4 µM (inactive)	24.8 µM (inactive)	> 68.2 µM (inactive)	> 100 µM (inactive)	51.9 µM (inactive)	54.1 µM (inactive)	> 73.5 µM (inactive)	39.2 µM (inactive)	44.2 µM (inactive)	23.4 µM (inactive)	14.7 µM (inactive)	97.3 µM (inactive)	39.7 µM	25.4 µM (inactive)	37.2 µM (inactive)	18.6 µM (inactive)	71.8 µM (inactive)	52.1 µM (inactive)	> 67.1 µM (inactive)	–
COC(=O)[C@@H]1Cc2cc(O)c(O)cc2C2(CCN(C)CC2)O1	> 10 µM (inactive)	> 10 µM (inactive)	> 10 µM (inactive)	> 10 µM (inactive)	–	> 10 µM (inactive)	> 10 µM (inactive)	> 10 µM (inactive)	> 10 µM (inactive)	> 10 µM (inactive)	–	> 10 µM (inactive)	> 10 µM	> 10 µM (inactive)	> 10 µM (inactive)	> 10 µM (inactive)	> 10 µM (inactive)	> 10 µM (inactive)	> 10 µM (inactive)	> 10 µM (inactive)
CC(=O)OC[C@H]1On2nnnc2[C@H](OC(C)=O)[C@@H](OC(C)=O)[C@@H]1OC(C)=O	> 100 µM (inactive)	> 100 µM (inactive)	> 100 µM (inactive)	> 100 µM (inactive)	> 100 µM (inactive)	> 100 µM (inactive)	> 100 µM (inactive)	> 100 µM (inactive)	> 100 µM (inactive)	> 100 µM (inactive)	> 100 µM (inactive)	–	> 100 µM	–	> 100 µM (inactive)	> 100 µM (inactive)	> 100 µM (inactive)	> 100 µM (inactive)	> 100 µM (inactive)	> 100 µM (inactive)
CCOc1cccc(/C=N\c2ccccc2SSc2ccccc2/N=C\c2cccc(OCC)c2O)c1O	7.46 µM (inactive)	1.26 µM (inactive)	12.6 µM (inactive)	4.28 µM (inactive)	13.7 µM (inactive)	10.7 µM (inactive)	3.64 µM (inactive)	6.82 µM (inactive)	11.5 µM (inactive)	2.21 µM (inactive)	6.55 µM (inactive)	11.2 µM (inactive)	3.44 µM	4.06 µM (inactive)	2.52 µM (inactive)	4.25 µM (inactive)	8.49 µM (inactive)	10.2 µM (inactive)	4 µM (inactive)	19.7 µM (inactive)
ClCCN(CCCl)c1ccc(CNCCCNCc2ccc(N(CCCl)CCCl)cc2)cc1	1.59 µM (inactive)	2.04 µM (inactive)	–	1.97 µM (inactive)	2.06 µM (inactive)	3.2 µM (inactive)	1.33 µM (inactive)	1.99 µM (inactive)	2.69 µM (inactive)	1.95 µM (inactive)	1.93 µM (inactive)	1.87 µM (inactive)	2.47 µM	4.7 µM (inactive)	2.38 µM (inactive)	0.11 µM (active)	3.03 µM (inactive)	2.44 µM (inactive)	–	–
O=C1c2ccsc2-c2cccc3cccc1c23.O=C1c2sccc2-c2cccc3cccc1c23	2.49 µM (inactive)	0.318 µM (active)	8.79 µM (inactive)	4.15 µM (inactive)	4.67 µM (inactive)	3.32 µM (inactive)	4.62 µM (inactive)	3.52 µM (inactive)	17.1 µM (inactive)	–	10 µM (inactive)	2.93 µM (inactive)	3.18 µM	18.9 µM (inactive)	4.94 µM (inactive)	0.203 µM (active)	3.27 µM (inactive)	0.353 µM (active)	11 µM (inactive)	3.27 µM (inactive)
O=C1/C(=C2\SCC(=O)N2c2ccccc2)SC(=S)N1c1ccccc1	34.4 µM (inactive)	51.2 µM (inactive)	28.1 µM (inactive)	55 µM (inactive)	–	31 µM (inactive)	30.4 µM (inactive)	51.9 µM (inactive)	32.1 µM (inactive)	46.7 µM (inactive)	36.1 µM (inactive)	50.9 µM (inactive)	43 µM	> 100 µM (inactive)	41.4 µM (inactive)	12 µM (inactive)	45.1 µM (inactive)	38.2 µM (inactive)	23.8 µM (inactive)	–
CCOC(=O)Nn1c(C)nnc1-c1ccccc1	> 100 µM (inactive)	> 100 µM (inactive)	> 100 µM (inactive)	> 100 µM (inactive)	> 100 µM (inactive)	> 100 µM (inactive)	> 100 µM (inactive)	> 100 µM (inactive)	> 100 µM (inactive)	> 100 µM (inactive)	> 100 µM (inactive)	> 100 µM (inactive)	> 100 µM	> 100 µM (inactive)	> 100 µM (inactive)	> 100 µM (inactive)	> 100 µM (inactive)	> 100 µM (inactive)	> 100 µM (inactive)	–
CCCCCCCCC#CCCCCCCC(F)C(=O)O (stereo not given)	> 100 µM (inactive)	> 100 µM (inactive)	> 100 µM (inactive)	–	> 100 µM (inactive)	> 100 µM (inactive)	> 100 µM (inactive)	> 100 µM (inactive)	> 100 µM (inactive)	> 100 µM (inactive)	40 µM (inactive)	> 100 µM (inactive)	> 100 µM	> 100 µM (inactive)	> 100 µM (inactive)	> 100 µM (inactive)	> 100 µM (inactive)	> 100 µM (inactive)	83.6 µM (inactive)	> 100 µM (inactive)
CC(C)OC(=O)Nc1cccc(Cl)c1 [CHLORPROPHAM]	> 100 µM (inactive)	50.4 µM (inactive)	> 100 µM (inactive)	> 100 µM (inactive)	> 100 µM (inactive)	> 100 µM (inactive)	87.1 µM (inactive)	70.1 µM (inactive)	> 100 µM (inactive)	> 100 µM (inactive)	89.9 µM (inactive)	> 100 µM (inactive)	83.6 µM	> 100 µM (inactive)	> 100 µM (inactive)	> 100 µM (inactive)	> 100 µM (inactive)	–	> 100 µM (inactive)	40.7 µM (inactive)
CC1=C(/C=C/C(C)=C/C=C/C(C)=C/CO)C(C)(C)CCC1 [RETINOL]	12.4 µM (inactive)	14.5 µM (inactive)	24.2 µM (inactive)	19.5 µM (inactive)	17.7 µM (inactive)	19.1 µM (inactive)	21.2 µM (inactive)	36.1 µM (inactive)	22.1 µM (inactive)	17.1 µM (inactive)	26.5 µM (inactive)	22.1 µM (inactive)	30.6 µM	16.8 µM (inactive)	–	18.1 µM (inactive)	19.4 µM (inactive)	11.1 µM (inactive)	37.7 µM (inactive)	0.0279 µM (active)
